Results published in PubChem BioAssay AID1963444 (Molecular Pharmacology Branch, DTP, NCI, 2024).

System: HSSY-II complex spheroid growth, percent test/control
Experiment: Anticancer human tumor HSSY-II cell line growth inhibition [Asc];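 further: spheroids exposed to drug for 7 days before reading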
Details: for IC50: curve of first compound; for viability, T/C: stronger effect = lower value
Procedure, shortened: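 Complex solid-tumor spheroids incorporating human endothelial and mesenchymal stem cells received single agents or combinations over half-log dilution ranges anchored to clinical Cmax.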

[1] = second compound 0.1 µM, first compound 0.0316 µM
[2] = second compound 0.1 µM, first compound 0.1 µM
[3] = second compound 0.1 µM, first compound 0.316 µM
[4] = second compound 0.1 µM, first compound 1 µM
[5] = second compound 0.1 µM, first compound 3.16 µM
[6] = second compound 0.1 µM, first compound 10 µM
[7] = second compound 0.316 µM, first compound 0.0316 µM
[8] = second compound 0.316 µM, first compound 0.1 µM
[9] = second compound 0.316 µM, first compound 0.316 µM
[10] = second compound 0.316 µM, first compound 1 µM
[11] = second compound 0.316 µM, first compound 3.16 µM
[12] = second compound 0.316 µM, first compound 10 µM
[13] = second compound 1 µM, first compound 0.0316 µM
[14] = second compound 1 µM, first compound 0.1 µM
[15] = second compound 1 µM, first compound 0.316 µM
[16] = second compound 1 µM, first compound 1 µM
[17] = second compound 1 µM, first compound 3.16 µM
[18] = second compound 1 µM, first compound 10 µM
[19] = second compound 3.16 µM, first compound 0.0316 µM
[20] = second compound 3.16 µM, first compound 0.1 µM
[21] = second compound 10 µM, first compound 0.0316 µM
[22] = second compound 10 µM, first compound 0.1 µM

C=C(F)C(=O)N1CCN(c2nc(OCC3CCCN3C)nc3c2CCN(c2cccc4cccc(Cl)c24)C3)CC1CC#N (stereo not given) + CNC(C)C(=O)NC1CN(S(=O)(=O)c2cccc(S(=O)(=O)N3CCC4CCC(C(=O)NC(c5ccccc5)c5ccccc5)N4C(=O)C(NC(=O)C(C)NC)C3)c2)CCC2CCC(C(=O)NC(c3ccccc3)c3ccccc3)N2C1=O
IC50 (second compound 0.01 µM): 618 nM | IC50 (second compound 0.0316 µM): 1030 nM | IC50 (second compound 0.1 µM): 876 nM | IC50 (second compound 0.316 µM): 895 nM | IC50 (second compound 1 µM): 650 nM | viability, T/C (second compound 0.01 µM, first compound 0.0316 µM): 95.8% | viability, T/C (second compound 0.01 µM, first compound 0.1 µM): 91% | viability, T/C (second compound 0.01 µM, first compound 0.316 µM): 61.4% | viability, T/C (second compound 0.01 µM, first compound 1 µM): 45.9% | viability, T/C (second compound 0.01 µM, first compound 3.16 µM): 0.97% | viability, T/C (second compound 0.01 µM, first compound 10 µM): 0.1% | viability, T/C (second compound 0.0316 µM, first compound 0.0316 µM): 89.3% | viability, T/C (second compound 0.0316 µM, first compound 0.1 µM): 80.9% | viability, T/C (second compound 0.0316 µM, first compound 0.316 µM): 68.7% | viability, T/C (second compound 0.0316 µM, first compound 1 µM): 53.9% | viability, T/C (second compound 0.0316 µM, first compound 3.16 µM): 0.93% | viability, T/C (second compound 0.0316 µM, first compound 10 µM): 0.1% | viability, T/C [1]: 90% | viability, T/C [2]: 91.2% | viability, T/C [3]: 79.3% | viability, T/C [4]: 47.6% | viability, T/C [5]: 0.66% | viability, T/C [6]: 0.1% | viability, T/C [7]: 88.5% | viability, T/C [8]: 74.5% | viability, T/C [9]: 74.4% | viability, T/C [10]: 47.8% | viability, T/C [11]: 0.45% | viability, T/C [12]: 0.12% | viability, T/C [13]: 79.6% | viability, T/C [14]: 80.6% | viability, T/C [15]: 65.1% | viability, T/C [16]: 41.6% | viability, T/C [17]: 0.37% | viability, T/C [18]: 0.19%

CCN1C(C(=O)NC23CCC(C(=O)O)(CC2)CC3)C(c2cccc(Cl)c2F)C2(C(=O)Nc3cc(Cl)ccc32)C12CCCCC2 (stereo not given) + CNC(C)C(=O)NC1CN(S(=O)(=O)c2cccc(S(=O)(=O)N3CCC4CCC(C(=O)NC(c5ccccc5)c5ccccc5)N4C(=O)C(NC(=O)C(C)NC)C3)c2)CCC2CCC(C(=O)NC(c3ccccc3)c3ccccc3)N2C1=O
IC50 (second compound 0.01 µM): 88.2 nM | IC50 (second compound 0.0316 µM): 99 nM | IC50 (second compound 0.1 µM): 81.9 nM | IC50 (second compound 0.316 µM): 77.7 nM | IC50 (second compound 1 µM): 67.7 nM | viability, T/C (second compound 0.01 µM, first compound 0.00949 µM): 96% | viability, T/C (second compound 0.01 µM, first compound 0.03 µM): 82.6% | viability, T/C (second compound 0.01 µM, first compound 0.0949 µM): 47.9% | viability, T/C (second compound 0.01 µM, first compound 0.3 µM): 14.6% | viability, T/C (second compound 0.01 µM, first compound 0.949 µM): 2.75% | viability, T/C (second compound 0.01 µM, first compound 3 µM): 0.77% | viability, T/C (second compound 0.0316 µM, first compound 0.00949 µM): 84.7% | viability, T/C (second compound 0.0316 µM, first compound 0.03 µM): 65.1% | viability, T/C (second compound 0.0316 µM, first compound 0.0949 µM): 55.9% | viability, T/C (second compound 0.0316 µM, first compound 0.3 µM): 14.8% | viability, T/C (second compound 0.0316 µM, first compound 0.949 µM): 1.52% | viability, T/C (second compound 0.0316 µM, first compound 3 µM): 0.58% | viability, T/C (second compound 0.1 µM, first compound 0.00949 µM): 90% | viability, T/C (second compound 0.1 µM, first compound 0.03 µM): 81.2% | viability, T/C (second compound 0.1 µM, first compound 0.0949 µM): 44.6% | viability, T/C (second compound 0.1 µM, first compound 0.3 µM): 13.4% | viability, T/C (second compound 0.1 µM, first compound 0.949 µM): 1.69% | viability, T/C (second compound 0.1 µM, first compound 3 µM): 0.35% | viability, T/C (second compound 0.316 µM, first compound 0.00949 µM): 95.7% | viability, T/C (second compound 0.316 µM, first compound 0.03 µM): 85.1% | viability, T/C (second compound 0.316 µM, first compound 0.0949 µM): 41.8% | viability, T/C (second compound 0.316 µM, first compound 0.3 µM): 11.2% | viability, T/C (second compound 0.316 µM, first compound 0.949 µM): 1% | viability, T/C (second compound 0.316 µM, first compound 3 µM): 0.23% | viability, T/C (second compound 1 µM, first compound 0.00949 µM): 82.9% | viability, T/C (second compound 1 µM, first compound 0.03 µM): 74.4% | viability, T/C (second compound 1 µM, first compound 0.0949 µM): 39.8% | viability, T/C (second compound 1 µM, first compound 0.3 µM): 9.04% | viability, T/C (second compound 1 µM, first compound 0.949 µM): 1.32% | viability, T/C (second compound 1 µM, first compound 3 µM): 0.3%

Cn1ncnc1[C@H]1c2n[nH]c(=O)c3cc(F)cc(c23)N[C@@H]1c1ccc(F)cc1 + Cc1c(S(C)(=O)=O)c(-c2cc(F)cc(N3CCN(c4ccc(NS(=O)(=O)c5ccc(NC(CCN6CCC(C(=O)OCCCP(=O)(O)O)CC6)CSc6ccccc6)c(S(=O)(=O)C(F)(F)F)c5)cc4)CC3)c2)c(-c2ccc(Cl)cc2)n1C(C)C
IC50 (second compound 0.1 µM): 15.4 nM | IC50 (second compound 0.316 µM): 12.7 nM | IC50 (second compound 1 µM): 7.69 nM | IC50 (second compound 3.16 µM): 8.69 nM | IC50 (second compound 10 µM): 6.57 nM | viability, T/C (second compound 0.1 µM, first compound 0.000316 µM): 100% | viability, T/C (second compound 0.1 µM, first compound 0.001 µM): 98.9% | viability, T/C (second compound 0.1 µM, first compound 0.00316 µM): 81.1% | viability, T/C (second compound 0.1 µM, first compound 0.01 µM): 55.8% | viability, T/C [1]: 39.5% | viability, T/C [2]: 23.1% | viability, T/C (second compound 0.316 µM, first compound 0.000316 µM): 97.6% | viability, T/C (second compound 0.316 µM, first compound 0.001 µM): 82% | viability, T/C (second compound 0.316 µM, first compound 0.00316 µM): 71.7% | viability, T/C (second compound 0.316 µM, first compound 0.01 µM): 55.5% | viability, T/C [7]: 33.6% | viability, T/C [8]: 18.2% | viability, T/C (second compound 1 µM, first compound 0.000316 µM): 96.4% | viability, T/C (second compound 1 µM, first compound 0.001 µM): 82.2% | viability, T/C (second compound 1 µM, first compound 0.00316 µM): 63.4% | viability, T/C (second compound 1 µM, first compound 0.01 µM): 50.3% | viability, T/C [13]: 22.4% | viability, T/C [14]: 13% | viability, T/C (second compound 3.16 µM, first compound 0.000316 µM): 95.8% | viability, T/C (second compound 3.16 µM, first compound 0.001 µM): 84.2% | viability, T/C (second compound 3.16 µM, first compound 0.00316 µM): 73.6% | viability, T/C (second compound 3.16 µM, first compound 0.01 µM): 47.5% | viability, T/C [19]: 21.6% | viability, T/C [20]: 10.4% | viability, T/C (second compound 10 µM, first compound 0.000316 µM): 82.2% | viability, T/C (second compound 10 µM, first compound 0.001 µM): 75.5% | viability, T/C (second compound 10 µM, first compound 0.00316 µM): 65.4% | viability, T/C (second compound 10 µM, first compound 0.01 µM): 42.4% | viability, T/C [21]: 16.9% | viability, T/C [22]: 11.3%

O=C(c1cc(Cc2n[nH]c(=O)c3ccccc23)ccc1F)N1CCN(C(=O)C2CC2)CC1 + Cc1c(S(C)(=O)=O)c(-c2cc(F)cc(N3CCN(c4ccc(NS(=O)(=O)c5ccc(NC(CCN6CCC(C(=O)OCCCP(=O)(O)O)CC6)CSc6ccccc6)c(S(=O)(=O)C(F)(F)F)c5)cc4)CC3)c2)c(-c2ccc(Cl)cc2)n1C(C)C
IC50 (second compound 0.1 µM): 2440 nM | IC50 (second compound 0.316 µM): 1960 nM | IC50 (second compound 1 µM): 1500 nM | IC50 (second compound 3.16 µM): 1810 nM | IC50 (second compound 10 µM): 1460 nM | viability, T/C [1]: 103% | viability, T/C [2]: 98.9% | viability, T/C [3]: 93% | viability, T/C [4]: 77.8% | viability, T/C [5]: 41.7% | viability, T/C [6]: 8.94% | viability, T/C [7]: 82.7% | viability, T/C [8]: 88.3% | viability, T/C [9]: 86.8% | viability, T/C [10]: 78.1% | viability, T/C [11]: 29.8% | viability, T/C [12]: 6.49% | viability, T/C [13]: 81.8% | viability, T/C [14]: 92.8% | viability, T/C [15]: 76.2% | viability, T/C [16]: 64.1% | viability, T/C [17]: 26.4% | viability, T/C [18]: 5.63% | viability, T/C [19]: 93.2% | viability, T/C [20]: 92% | viability, T/C (second compound 3.16 µM, first compound 0.316 µM): 82.5% | viability, T/C (second compound 3.16 µM, first compound 1 µM): 76% | viability, T/C (second compound 3.16 µM, first compound 3.16 µM): 26.5% | viability, T/C (second compound 3.16 µM, first compound 10 µM): 3.28% | viability, T/C [21]: 83.5% | viability, T/C [22]: 90.2% | viability, T/C (second compound 10 µM, first compound 0.316 µM): 78.8% | viability, T/C (second compound 10 µM, first compound 1 µM): 66.7% | viability, T/C (second compound 10 µM, first compound 3.16 µM): 16.9% | viability, T/C (second compound 10 µM, first compound 10 µM): 2.61%
